According to PubChem BioAssay AID248 (DTP/NCI, 2004):
Toxic doses and inconclusive results are not listed. Cut-off read from the data, not from the text of the source: active = T/C of 150% or more; inactive = T/C below 125%.

Tested on: L1210 leukemia ip in BDF1 mice, survival T/C
Experiment: NCI In Vivo Anticancer Drug Screen. Data for tumor model L1210 Leukemia (intraperitoneal) in B6D2F1 (BDF1) mice
Conditions: endpoint: mean survival time, higher = longer survival
Summary of the method: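 Transplantable tumor model; survival measured in treated vs vehicle control mice. Value = treated/control.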

[1] = dose: 100.0 mg/kg/injection, schedule: Q01DX001 (ip), vehicle: carboxymethylcellulose (CMC)
[2] = dose: 200.0 mg/kg/injection, schedule: Q01DX001 (ip), vehicle: carboxymethylcellulose (CMC)
[3] = dose: 400.0 mg/kg/injection, schedule: Q01DX001 (ip), vehicle: carboxymethylcellulose (CMC)
[4] = dose: 25.0 mg/kg/injection, schedule: Q04DX002 (ip), vehicle: Klucel (hydroxypropylcellulose) (HPC)
[5] = dose: 50.0 mg/kg/injection, schedule: Q04DX002 (ip), vehicle: Klucel (hydroxypropylcellulose) (HPC)
[6] = dose: 100.0 mg/kg/injection, schedule: Q04DX002 (ip), vehicle: Klucel (hydroxypropylcellulose) (HPC)
[7] = dose: 100.0 mg/kg/injection, schedule: Q01DX009 (ip), vehicle: saline with Tween-80
[8] = dose: 200.0 mg/kg/injection, schedule: Q01DX009 (ip), vehicle: saline with Tween-80
[9] = dose: 400.0 mg/kg/injection, schedule: Q01DX009 (ip), vehicle: saline with Tween-80
[10] = dose: 100.0 mg/kg/injection, schedule: Q04DX003 (ip), vehicle: saline
[11] = dose: 200.0 mg/kg/injection, schedule: Q04DX003 (ip), vehicle: saline
[12] = dose: 400.0 mg/kg/injection, schedule: Q04DX003 (ip), vehicle: saline
[13] = dose: 200.0 mg/kg/injection, schedule: Q04DX002 (ip), vehicle: Klucel (hydroxypropylcellulose) (HPC)
[14] = dose: 400.0 mg/kg/injection, schedule: Q04DX002 (ip), vehicle: Klucel (hydroxypropylcellulose) (HPC)
[15] = dose: 100.0 mg/kg/injection, schedule: Q04DX003 (ip), vehicle: Klucel (hydroxypropylcellulose) (HPC)
[16] = dose: 200.0 mg/kg/injection, schedule: Q04DX003 (ip), vehicle: Klucel (hydroxypropylcellulose) (HPC)
[17] = dose: 400.0 mg/kg/injection, schedule: Q04DX003 (ip), vehicle: Klucel (hydroxypropylcellulose) (HPC)
[18] = dose: 100.0 mg/kg/injection, schedule: Q01DX009 (ip), vehicle: Klucel (hydroxypropylcellulose) (HPC)
[19] = dose: 200.0 mg/kg/injection, schedule: Q01DX009 (ip), vehicle: Klucel (hydroxypropylcellulose) (HPC)
[20] = dose: 100.0 mg/kg/injection, schedule: Q04DX003 (ip), vehicle: saline with Tween-80
[21] = dose: 200.0 mg/kg/injection, schedule: Q04DX003 (ip), vehicle: saline with Tween-80
[22] = dose: 400.0 mg/kg/injection, schedule: Q04DX003 (ip), vehicle: saline with Tween-80
[23] = dose: 75.0 mg/kg/injection, schedule: Q01DX001 (ip), vehicle: saline
[24] = dose: 150.0 mg/kg/injection, schedule: Q01DX001 (ip), vehicle: saline
[25] = dose: 400.0 mg/kg/injection, schedule: Q01DX009 (ip), vehicle: Klucel (hydroxypropylcellulose) (HPC)

Measured: T/C

N=C1SCC(=O)N1CCN1C(=N)SCC1=O
inactive: [1] 101 % of control | [2] 90 % of control | [3] 97 % of control

O=S1(=O)CC2(N3CCCC3)C3c4ccccc4C(c4ccccc43)C21 (stereo not drawn)
inactive: [4] 102 % of control | [5] 102 % of control | [6] 117 % of control

N#CC(C(=O)c1ccccc1)c1ccccc1 (stereo not drawn)
inactive: dose: 62.5 mg/kg/injection, schedule: Q04DX002 (ip), vehicle: Klucel (hydroxypropylcellulose) (HPC) 108 % of control | dose: 125.0 mg/kg/injection, schedule: Q04DX002 (ip), vehicle: Klucel (hydroxypropylcellulose) (HPC) 96 % of control

O=[N+]([O-])c1ccc(OCc2ccccc2)nc1
inactive: [7] 104 % of control | [8] 97 % of control | [9] 93 % of control

O=C(O)CCC(=O)c1cccc2ccccc12
inactive: dose: 100.0 mg/kg/injection, schedule: Q01DX009 (ip), vehicle: saline 96 % of control | [10] 105 % of control | dose: 200.0 mg/kg/injection, schedule: Q01DX009 (ip), vehicle: saline 112 % of control | [11] 94 % of control | [12] 103 % of control

CC1CCC2(OC1)OC1CC3C4CCC5CC(=O)CCC5(C)C4CCC3(C)C1C2C (stereo not drawn)
inactive: [6] 102 % of control | [13] 105 % of control | [14] 94 % of control

NCCSc1cc(O)c2c(c1N)C(=O)c1ccccc1C2=O
inactive: dose: 50.0 mg/kg/injection, schedule: Q01DX001 (ip), vehicle: carboxymethylcellulose (CMC) 97 % of control | [1] 97 % of control | [2] 100 % of control | [3] 97 % of control

CN(C)c1ccc(/C=C/c2nc3ccc(Cl)cc3[nH]2)cc1
inactive: [15] 96 % of control | [16] 103 % of control | [17] 96 % of control

Cc1ncc(CO)c(C2NOCc3ncsc32)c1O (stereo not drawn)
inactive: dose: 6.25 mg/kg/injection, schedule: Q01DX009 (ip), vehicle: saline 89 % of control | dose: 6.25 mg/kg/injection, schedule: Q04DX003 (ip), vehicle: saline 102 % of control | dose: 12.5 mg/kg/injection, schedule: Q01DX001 (ip), vehicle: saline 101 % of control | dose: 12.5 mg/kg/injection, schedule: Q01DX009 (ip), vehicle: saline 97 % of control | dose: 12.5 mg/kg/injection, schedule: Q04DX003 (ip), vehicle: saline 106 % of control | dose: 25.0 mg/kg/injection, schedule: Q01DX001 (ip), vehicle: saline 102 % of control | dose: 25.0 mg/kg/injection, schedule: Q04DX003 (ip), vehicle: saline 93 % of control

O=[N+]([O-])C(Br)(c1ccccc1)S(=O)(=O)Cc1ccccc1 (stereo not drawn)
inactive: [18] 95 % of control | [15] 100 % of control | [19] 101 % of control | [16] 95 % of control | [17] 102 % of control

COC1(c2ccccc2)OC(C(C)(C)C)=NC1(C)C (stereo not drawn)
inactive: [20] 92 % of control | [21] 108 % of control

c1ccc(C2=C(c3ccccc3)c3cccc4cccc2c34)cc1
inactive: dose: 100.0 mg/kg/injection, schedule: Q01DX001 (ip), vehicle: acetone 100 % of control | dose: 100.0 mg/kg/injection, schedule: Q01DX009 (ip), vehicle: acetone 87 % of control | [10] 94 % of control | dose: 200.0 mg/kg/injection, schedule: Q01DX001 (ip), vehicle: acetone 89 % of control | dose: 200.0 mg/kg/injection, schedule: Q01DX009 (ip), vehicle: acetone 96 % of control | [11] 97 % of control | dose: 400.0 mg/kg/injection, schedule: Q01DX001 (ip), vehicle: acetone 94 % of control | dose: 400.0 mg/kg/injection, schedule: Q01DX009 (ip), vehicle: acetone 87 % of control | [12] 92 % of control

COC1=CC=C2C3Cc4ccc(OC)c(O)c4C2(C1)CN3C (stereo not drawn)
inactive: dose: 100.0 mg/kg/injection, schedule: Q04DX003 (ip), vehicle: other 96 % of control

COC(OC)c1cc(=O)[nH]c(NC(=O)C(Cl)Cl)n1
inactive: dose: 25.0 mg/kg/injection, schedule: Q01DX009 (ip), vehicle: saline with Tween-80 90 % of control | dose: 50.0 mg/kg/injection, schedule: Q01DX009 (ip), vehicle: saline with Tween-80 107 % of control | [7] 106 % of control | [20] 98 % of control | [8] 89 % of control | [21] 104 % of control | [9] 93 % of control | [22] 94 % of control

C=CCC1(/C(C)=C/C)C(=O)NC(=O)NC1=O
inactive: [23] 100 % of control | [24] 94 % of control

Clc1ccc([As](c2ccc(Cl)cc2)c2ccc(Cl)cc2)cc1
inactive: [20] 100 % of control | [21] 90 % of control | [22] 101 % of control

O=[N+]([O-])C(c1ccccc1)C(C/C(=N/O)c1ccccc1)c1ccccc1 (stereo not drawn)
inactive: [6] 100 % of control | [13] 92 % of control | [14] 96 % of control

CNC(=O)NCc1ccc(Cl)cc1
inactive: [20] 105 % of control | [21] 98 % of control | [22] 107 % of control

COc1ccc2c(c1)C1(C)CCCC(C)(C(=O)O)C1C(Br)C2=O (stereo not drawn)
inactive: dose: 100.0 mg/kg/injection, schedule: Q01DX001 (ip), vehicle: saline 104 % of control | dose: 200.0 mg/kg/injection, schedule: Q01DX001 (ip), vehicle: saline 101 % of control | dose: 400.0 mg/kg/injection, schedule: Q01DX001 (ip), vehicle: saline 102 % of control

CCOC(=O)CCCc1cccc(OC)c1OC
inactive: dose: 100.0 mg/kg/injection, schedule: Q01DX001 (ip), vehicle: saline with Tween-80 91 % of control | dose: 200.0 mg/kg/injection, schedule: Q01DX001 (ip), vehicle: saline with Tween-80 91 % of control | dose: 400.0 mg/kg/injection, schedule: Q01DX001 (ip), vehicle: saline with Tween-80 98 % of control

CCCCCCCCCc1c(C)[nH]c2ccccc2c1=O
inactive: [18] 94 % of control | [10] 100 % of control | [19] 86 % of control | [11] 104 % of control | [25] 86 % of control | [12] 100 % of control

COC(=O)C(CCC(=O)CN1C(=O)c2ccccc2C1=O)N1C(=O)c2ccccc2C1=O (stereo not drawn)
inactive: [20] 101 % of control | [21] 99 % of control | [22] 87 % of control

Cc1ccc(C2Nc3ccccc3S(=O)(=O)C2c2ccccc2)cc1 (stereo not drawn)
inactive: dose: 100.0 mg/kg/injection, schedule: Q01DX001 (ip), vehicle: Klucel (hydroxypropylcellulose) (HPC) 95 % of control | dose: 200.0 mg/kg/injection, schedule: Q01DX001 (ip), vehicle: Klucel (hydroxypropylcellulose) (HPC) 106 % of control | dose: 400.0 mg/kg/injection, schedule: Q01DX001 (ip), vehicle: Klucel (hydroxypropylcellulose) (HPC) 101 % of control

C=CCc1ccc(OCCOCCN(C)C2CCCCC2)c(OC)c1
inactive: [15] 90 % of control

CCn1c(=O)cc(C)c2ccccc21
inactive: dose: 75.0 mg/kg/injection, schedule: Q01DX001 (ip), vehicle: carboxymethylcellulose (CMC) 104 % of control | dose: 150.0 mg/kg/injection, schedule: Q01DX001 (ip), vehicle: carboxymethylcellulose (CMC) 104 % of control | dose: 300.0 mg/kg/injection, schedule: Q01DX001 (ip), vehicle: carboxymethylcellulose (CMC) 96 % of control

N#Cc1cccn1-c1cccc2c(-n3cccc3C#N)cccc12
inactive: [4] 101 % of control | [5] 97 % of control | [6] 101 % of control

COc1cc(C2N=C(N)N=C(N)N2c2ccc(S(N)(=O)=O)cc2)cc(OC)c1OC (stereo not drawn)
inactive: [23] 93 % of control | [24] 96 % of control

O=C(Oc1c(Cl)cc(Cl)cc1Cl)c1ccccc1
inactive: [18] 93 % of control | [7] 90 % of control | [15] 93 % of control | [20] 98 % of control | [19] 96 % of control | [8] 91 % of control | [16] 96 % of control | [21] 98 % of control | [25] 98 % of control | [9] 106 % of control | [17] 98 % of control | [22] 96 % of control
